Columns and labels:
Format in all cases: in vivo
[1] = system: Italian ryegrass (Lolium multiflorum); assay: Test A preemergence, visual plant response rating; settings: approx. 10 days
How it was run: (§1)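 Ratings use a 0–100 visual scale (100 = complete control) against untreated controls, scored about 10 days after greenhouse treatment. Test chemicals were formulated in surfactant-containing non-phytotoxic solvent and applied either as soil spray after planting (preemergence) or onto one- to two-leaf, 2–10 cm plants (postemergence).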

[2] = system: barnyardgrass (Echinochloa crus-galli); assay: Test A preemergence, visual plant response rating; settings: approx. 10 days
How it was run: as §1

[3] = system: foxtail, green (green foxtail, Setaria viridis); assay: Test A preemergence, visual plant response rating; settings: approx. 10 days
How it was run: as §1

[4] = system: kochia (Kochia scoparia); assay: Test A preemergence, visual plant response rating; settings: approx. 10 days
How it was run: as §1

[5] = system: pigweed (Amaranthus retroflexus); assay: Test A preemergence, visual plant response rating; settings: approx. 10 days
How it was run: as §1

[6] = system: ragweed (common ragweed, Ambrosia elatior); assay: Test A preemergence, visual plant response rating; settings: approx. 10 days
How it was run: as §1

[7] = system: Italian ryegrass (Lolium multiflorum); assay: Test A postemergence, visual plant response rating; settings: for Ryegrass, Italian plant response rating (0 to 100 scale): 500 g ai/ha, postemergence, 0 is no effect, 100 is complete control; for Ryegrass, Italian plant response rating: Postemergence, 125 g ai/ha, 0 to 100 scale (0 no effect, 100 complete control)
How it was run: as §1

[8] = system: barnyardgrass (Echinochloa crus-galli); assay: Test A postemergence, visual plant response rating; settings: for Barnyardgrass plant response rating (0 to 100 scale): 500 g ai/ha, postemergence, 0 is no effect, 100 is complete control; for Barnyardgrass plant response rating: Postemergence, 125 g ai/ha, 0 to 100 scale (0 no effect, 100 complete control)
How it was run: as §1

[9] = system: blackgrass (Alopecurus myosuroides); assay: Test A postemergence, visual plant response rating; settings: for Blackgrass plant response rating (0 to 100 scale): 500 g ai/ha, postemergence, 0 is no effect, 100 is complete control; for Blackgrass plant response rating: Postemergence, 125 g ai/ha, 0 to 100 scale (0 no effect, 100 complete control)
How it was run: as §1

[10] = system: corn (Zea mays); assay: Test A postemergence, visual plant response rating; settings: for Corn plant response rating (0 to 100 scale): 500 g ai/ha, postemergence, 0 is no effect, 100 is complete control; for Corn plant response rating: Postemergence, 125 g ai/ha, 0 to 100 scale (0 no effect, 100 complete control)
How it was run: as §1

[11] = system: foxtail, green (green foxtail, Setaria viridis); assay: Test A postemergence, visual plant response rating; settings: for Foxtail, Green plant response rating (0 to 100 scale): 500 g ai/ha, postemergence, 0 is no effect, 100 is complete control; for Foxtail, Green plant response rating: Postemergence, 125 g ai/ha, 0 to 100 scale (0 no effect, 100 complete control)
How it was run: as §1

[12] = system: galium (catchweed bedstraw, Galium aparine); assay: Test A postemergence, visual plant response rating; settings: for Galium plant response rating (0 to 100 scale): 500 g ai/ha, postemergence, 0 is no effect, 100 is complete control; for Galium plant response rating: Postemergence, 125 g ai/ha, 0 to 100 scale (0 no effect, 100 complete control)
How it was run: as §1

[13] = system: kochia (Kochia scoparia); assay: Test A postemergence, visual plant response rating; settings: for Kochia plant response rating (0 to 100 scale): 500 g ai/ha, postemergence, 0 is no effect, 100 is complete control; for Kochia plant response rating: Postemergence, 125 g ai/ha, 0 to 100 scale (0 no effect, 100 complete control)
How it was run: as §1

[14] = system: pigweed (Amaranthus retroflexus); assay: Test A postemergence, visual plant response rating; settings: for Pigweed plant response rating (0 to 100 scale): 500 g ai/ha, postemergence, 0 is no effect, 100 is complete control; for Pigweed plant response rating: Postemergence, 125 g ai/ha, 0 to 100 scale (0 no effect, 100 complete control)
How it was run: as §1

[15] = system: ragweed (common ragweed, Ambrosia elatior); assay: Test A postemergence, visual plant response rating; settings: for Ragweed plant response rating (0 to 100 scale): 500 g ai/ha, postemergence, 0 is no effect, 100 is complete control; for Ragweed plant response rating: Postemergence, 125 g ai/ha, 0 to 100 scale (0 no effect, 100 complete control)
How it was run: as §1

[16] = system: wheat (Triticum aestivum); assay: Test A postemergence, visual plant response rating; settings: for Wheat plant response rating (0 to 100 scale): 500 g ai/ha, postemergence, 0 is no effect, 100 is complete control; for Wheat plant response rating: Postemergence, 125 g ai/ha, 0 to 100 scale (0 no effect, 100 complete control)
How it was run: as §1

[17] = system: barnyardgrass (Echinochloa crus-galli); assay: Test B flooded paddy test, visual plant response rating; settings: 250 g ai/ha, Flood, applied to paddy water, 2-leaf stage, evaluated after 13 to 15 days
How it was run: (§2)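 Plants were raised to the 2-leaf stage, then pots were flooded to 3 cm above the soil and test compound was applied directly into the paddy water. Water depth was held for the whole test; after 13 to 15 days in a greenhouse, responses were scored visually against controls.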

[18] = system: ducksalad (Heteranhera limosa); assay: as above; settings: 250 g ai/ha, Flood, applied to paddy water, 2-leaf stage, evaluated after 13 to 15 days
How it was run: as §2

[19] = system: rice (Oryza sativa); assay: as above; settings: 250 g ai/ha, Flood, applied to paddy water, 2-leaf stage, evaluated after 13 to 15 days
How it was run: as §2

[20] = system: sedge, umbrella (small-flower umbrella sedge, Cyperus difformis); assay: as above; settings: 250 g ai/ha, Flood, applied to paddy water, 2-leaf stage, evaluated after 13 to 15 days
How it was run: as §2

Structure (SMILES)	Ryegrass, Italian plant response rating (0 to 100 scale) ([1]; 125 g ai/ha Preemergence)	Ryegrass, Italian plant response rating (0 to 100 scale) ([1]; 500 g ai/ha Preemergence)	Barnyardgrass plant response rating (0 to 100 scale) ([2]; 125 g ai/ha Preemergence)	Barnyardgrass plant response rating (0 to 100 scale) ([2]; 500 g ai/ha Preemergence)	Foxtail, Green plant response rating (0 to 100 scale) ([3]; 125 g ai/ha Preemergence)	Foxtail, Green plant response rating (0 to 100 scale) ([3]; 500 g ai/ha Preemergence)	Kochia plant response rating (0 to 100 scale) ([4]; 125 g ai/ha Preemergence)	Kochia plant response rating (0 to 100 scale) ([4]; 500 g ai/ha Preemergence)	Pigweed plant response rating (0 to 100 scale) ([5]; 125 g ai/ha Preemergence)	Pigweed plant response rating (0 to 100 scale) ([5]; 500 g ai/ha Preemergence)	Ragweed plant response rating (0 to 100 scale) ([6]; 125 g ai/ha Preemergence)	Ragweed plant response rating (0 to 100 scale) ([6]; 500 g ai/ha Preemergence)	Ryegrass, Italian plant response rating (0 to 100 scale) [7]	Ryegrass, Italian plant response rating [7]	Barnyardgrass plant response rating (0 to 100 scale) [8]	Barnyardgrass plant response rating [8]	Blackgrass plant response rating (0 to 100 scale) [9]	Blackgrass plant response rating [9]	Corn plant response rating (0 to 100 scale) [10]	Corn plant response rating [10]	also measured
CCO/N=C(\c1ccccc1C)c1c(O)c(C)nn(C)c1=O [Compound 14]	20	90	40	80	20	70	0	20	0	50	80	80	60	60	40	20	60	30	10	0	Foxtail, Green plant response rating (0 to 100 scale) [11]: 40; Foxtail, Green plant response rating [11]: 20; Galium plant response rating (0 to 100 scale) [12]: 90; Galium plant response rating [12]: 90; Kochia plant response rating (0 to 100 scale) [13]: 50; Kochia plant response rating [13]: 20; Pigweed plant response rating (0 to 100 scale) [14]: 80; Pigweed plant response rating [14]: 20; Ragweed plant response rating (0 to 100 scale) [15]: 70; Ragweed plant response rating [15]: 60; Wheat plant response rating (0 to 100 scale) [16]: 0; Wheat plant response rating [16]: 0; Plant response rating, Barnyardgrass (0 to 100 scale, 0 is no effect, 100 is complete control) [17]: 0; Plant response rating, Ducksalad (0 to 100 scale, 0 is no effect, 100 is complete control) [18]: 0; Plant response rating, Rice (0 to 100 scale, 0 is no effect, 100 is complete control) [19]: 0; Plant response rating, Sedge, Umbrella (0 to 100 scale, 0 is no effect, 100 is complete control) [20]: 0
CCO/N=C(/c1ccccc1C)c1c(O)c(C)nn(C)c1=O [Compound 15]	70	80	30	80	0	60	0	10	60	70	30	90	80	60	30	10	60	30	10	0	Foxtail, Green plant response rating (0 to 100 scale) [11]: 30; Foxtail, Green plant response rating [11]: 10; Galium plant response rating (0 to 100 scale) [12]: 90; Galium plant response rating [12]: 80; Kochia plant response rating (0 to 100 scale) [13]: 20; Kochia plant response rating [13]: 0; Pigweed plant response rating (0 to 100 scale) [14]: 30; Pigweed plant response rating [14]: 20; Ragweed plant response rating (0 to 100 scale) [15]: 80; Ragweed plant response rating [15]: 60; Wheat plant response rating (0 to 100 scale) [16]: 0; Wheat plant response rating [16]: 0; Plant response rating, Barnyardgrass (0 to 100 scale, 0 is no effect, 100 is complete control) [17]: 0; Plant response rating, Ducksalad (0 to 100 scale, 0 is no effect, 100 is complete control) [18]: 0; Plant response rating, Rice (0 to 100 scale, 0 is no effect, 100 is complete control) [19]: 0; Plant response rating, Sedge, Umbrella (0 to 100 scale, 0 is no effect, 100 is complete control) [20]: 0
